Results: the NIST ThermoML archive (doi:10.1016/j.fluid.2019.05.003)
Numbers after ± are expanded uncertainties.

Test: xn = mol fraction of the nth substance listed
Details: 101 kPa, Liquid; for viscosity: Falling or rolling sphere viscometry; for mass density: Vibrating tube method

CC[N+](C)(C)CCO.[Br-] [ethyl(2-hydroxyethyl)dimethylammonium bromide] + O
Details	mass density [kg/m3]	viscosity [mPa·s]
298.15 K, x1 = 0.026	1061.1 ± 0.4	1.249 ± 0.076
298.15 K, x1 = 0.049	1103.4 ± 0.4	1.613 ± 0.098
298.15 K, x1 = 0.068	1132.6 ± 0.4	2.066 ± 0.12
298.15 K, x1 = 0.086	1155.4 ± 0.3	2.594 ± 0.16
298.15 K, x1 = 0.119	1190.7 ± 0.3	4.028 ± 0.24
298.15 K, x1 = 0.156	1220 ± 0.3	6.186 ± 0.38
298.15 K, x1 = 0.185	1238.4 ± 0.3	9.494 ± 0.57
298.15 K, x1 = 0.214	1254.1 ± 0.4	13 ± 0.79
298.15 K, x1 = 0.257	1273.4 ± 0.4	20.35 ± 1.2
298.15 K, x1 = 0.319	1293.9 ± 0.5	35.33 ± 2.1
303.15 K, x1 = 0.026	1059.2 ± 0.4	1.117 ± 0.068
303.15 K, x1 = 0.049	1101.3 ± 0.4	1.463 ± 0.089
303.15 K, x1 = 0.068	1130.3 ± 0.4	1.836 ± 0.11
303.15 K, x1 = 0.086	1153 ± 0.3	2.292 ± 0.14
303.15 K, x1 = 0.119	1188.1 ± 0.3	3.487 ± 0.21
303.15 K, x1 = 0.156	1217.2 ± 0.3	5.347 ± 0.32
303.15 K, x1 = 0.185	1235.6 ± 0.3	8.22 ± 0.5
303.15 K, x1 = 0.214	1251.3 ± 0.4	11.13 ± 0.67
303.15 K, x1 = 0.257	1270.5 ± 0.4	17.24 ± 1.1
303.15 K, x1 = 0.319	1290.9 ± 0.5	29.38 ± 1.8
308.15 K, x1 = 0.026	1057.2 ± 0.4	1.017 ± 0.062
308.15 K, x1 = 0.049	1099.1 ± 0.4	1.296 ± 0.078
308.15 K, x1 = 0.068	1127.9 ± 0.4	1.645 ± 0.1
308.15 K, x1 = 0.086	1150.4 ± 0.3	2.046 ± 0.12
308.15 K, x1 = 0.119	1185.4 ± 0.3	3.095 ± 0.19
308.15 K, x1 = 0.156	1214.5 ± 0.3	4.593 ± 0.28
308.15 K, x1 = 0.185	1232.8 ± 0.3	7.127 ± 0.43
308.15 K, x1 = 0.214	1248.4 ± 0.4	9.581 ± 0.58
308.15 K, x1 = 0.257	1267.6 ± 0.4	14.63 ± 0.89
308.15 K, x1 = 0.319	1288 ± 0.5	24.38 ± 1.5
313.15 K, x1 = 0.026	1055.1 ± 0.4	0.917 ± 0.055
313.15 K, x1 = 0.049	1096.7 ± 0.4	1.171 ± 0.071
313.15 K, x1 = 0.068	1125.4 ± 0.4	1.484 ± 0.09
313.15 K, x1 = 0.086	1147.9 ± 0.3	1.839 ± 0.11
313.15 K, x1 = 0.119	1182.7 ± 0.3	2.771 ± 0.17
313.15 K, x1 = 0.156	1211.7 ± 0.3	4.112 ± 0.25
313.15 K, x1 = 0.185	1229.9 ± 0.3	6.185 ± 0.38
313.15 K, x1 = 0.214	1245.5 ± 0.4	8.263 ± 0.5
313.15 K, x1 = 0.257	1264.6 ± 0.4	12.43 ± 0.75
313.15 K, x1 = 0.319	1285 ± 0.5	20.45 ± 1.2
318.15 K, x1 = 0.026	1052.6 ± 0.4	0.841 ± 0.051
318.15 K, x1 = 0.049	1093.9 ± 0.4	1.068 ± 0.065
318.15 K, x1 = 0.068	1122.8 ± 0.4	1.35 ± 0.082
318.15 K, x1 = 0.086	1145.2 ± 0.3	1.663 ± 0.1
318.15 K, x1 = 0.119	1179.9 ± 0.3	2.486 ± 0.15
318.15 K, x1 = 0.156	1208.8 ± 0.3	3.655 ± 0.22
318.15 K, x1 = 0.185	1227 ± 0.3	5.378 ± 0.33
318.15 K, x1 = 0.214	1242.5 ± 0.4	7.16 ± 0.43
318.15 K, x1 = 0.257	1261.7 ± 0.4	10.68 ± 0.65
318.15 K, x1 = 0.319	1282 ± 0.5	17.3 ± 1.1
323.15 K, x1 = 0.026	1050.7 ± 0.4	0.775 ± 0.047
323.15 K, x1 = 0.049	1091.4 ± 0.4	0.98 ± 0.059
323.15 K, x1 = 0.068	1120.1 ± 0.4	1.234 ± 0.075
323.15 K, x1 = 0.086	1142.5 ± 0.3	1.513 ± 0.092
323.15 K, x1 = 0.119	1177.1 ± 0.3	2.242 ± 0.14
323.15 K, x1 = 0.156	1205.9 ± 0.3	3.307 ± 0.2
323.15 K, x1 = 0.185	1224.1 ± 0.3	4.688 ± 0.28
323.15 K, x1 = 0.214	1239.6 ± 0.4	6.248 ± 0.38
323.15 K, x1 = 0.257	1258.7 ± 0.4	9.249 ± 0.56
323.15 K, x1 = 0.319	1279 ± 0.5	14.91 ± 0.9
328.15 K, x1 = 0.026	1048.6 ± 0.4	0.72 ± 0.044
328.15 K, x1 = 0.049	1088.9 ± 0.4	0.902 ± 0.055
328.15 K, x1 = 0.068	1117.2 ± 0.4	1.132 ± 0.068
328.15 K, x1 = 0.086	1139.7 ± 0.3	1.382 ± 0.084
328.15 K, x1 = 0.119	1174.2 ± 0.3	2.034 ± 0.12
328.15 K, x1 = 0.156	1203 ± 0.3	2.962 ± 0.18
328.15 K, x1 = 0.185	1221.2 ± 0.3	4.143 ± 0.25
328.15 K, x1 = 0.214	1236.6 ± 0.4	5.498 ± 0.33
328.15 K, x1 = 0.257	1255.7 ± 0.4	8.108 ± 0.49
328.15 K, x1 = 0.319	1276 ± 0.5	12.84 ± 0.78
333.15 K, x1 = 0.026	1046.5 ± 0.4	0.669 ± 0.04
333.15 K, x1 = 0.049	1085.9 ± 0.4	0.837 ± 0.051
333.15 K, x1 = 0.068	1114.5 ± 0.4	1.046 ± 0.063
333.15 K, x1 = 0.086	1136.8 ± 0.3	1.273 ± 0.077
333.15 K, x1 = 0.119	1171.2 ± 0.3	1.857 ± 0.11
333.15 K, x1 = 0.156	1200.1 ± 0.3	2.679 ± 0.16
333.15 K, x1 = 0.185	1218.2 ± 0.3	3.576 ± 0.22
333.15 K, x1 = 0.214	1233.6 ± 0.4	4.864 ± 0.3
333.15 K, x1 = 0.257	1252.7 ± 0.4	7.142 ± 0.43
333.15 K, x1 = 0.319	1273 ± 0.5	11.49 ± 0.7
338.15 K, x1 = 0.026	1044.3 ± 0.4	0.632 ± 0.038
338.15 K, x1 = 0.049	1083.9 ± 0.4	0.786 ± 0.048
338.15 K, x1 = 0.068	1112.2 ± 0.4	0.965 ± 0.058
338.15 K, x1 = 0.086	1134.1 ± 0.3	1.174 ± 0.071
338.15 K, x1 = 0.119	1168.1 ± 0.3	1.707 ± 0.1
338.15 K, x1 = 0.156	1197.1 ± 0.3	2.439 ± 0.15
338.15 K, x1 = 0.185	1215.2 ± 0.3	3.122 ± 0.19
338.15 K, x1 = 0.214	1230.6 ± 0.4	4.315 ± 0.26
338.15 K, x1 = 0.257	1249.7 ± 0.4	6.33 ± 0.38
338.15 K, x1 = 0.319	1270 ± 0.5	10.29 ± 0.62
343.15 K, x1 = 0.026	1042.2 ± 0.4	0.588 ± 0.036
343.15 K, x1 = 0.049	1081.4 ± 0.4	0.737 ± 0.045
343.15 K, x1 = 0.068	1109.6 ± 0.4	0.906 ± 0.055
343.15 K, x1 = 0.086	1131.4 ± 0.3	1.112 ± 0.067
343.15 K, x1 = 0.119	1165.6 ± 0.3	1.569 ± 0.095
343.15 K, x1 = 0.156	1194 ± 0.3	2.202 ± 0.13
343.15 K, x1 = 0.185	1212.1 ± 0.3	2.835 ± 0.17
343.15 K, x1 = 0.214	1227.6 ± 0.4	3.849 ± 0.23
343.15 K, x1 = 0.257	1246.6 ± 0.4	5.548 ± 0.34
343.15 K, x1 = 0.319	1266.9 ± 0.5	9.319 ± 0.56
348.15 K, x1 = 0.026	1040.1 ± 0.4	0.56 ± 0.034
348.15 K, x1 = 0.049	1078.9 ± 0.4	0.679 ± 0.041
348.15 K, x1 = 0.068	1107 ± 0.4	0.853 ± 0.052
348.15 K, x1 = 0.086	1128.3 ± 0.3	1.071 ± 0.065
348.15 K, x1 = 0.119	1162.8 ± 0.3	1.454 ± 0.088
348.15 K, x1 = 0.156	1190.9 ± 0.3	2.022 ± 0.12
348.15 K, x1 = 0.185	1209.4 ± 0.3	2.576 ± 0.16
348.15 K, x1 = 0.214	1224.5 ± 0.4	3.479 ± 0.21
348.15 K, x1 = 0.257	1243.6 ± 0.4	4.96 ± 0.3
348.15 K, x1 = 0.319	1263.9 ± 0.5	8.658 ± 0.53
